ChEMBL document CHEMBL3507680, “University of Dundee, Gates Library screen for HepG2 cell viability”

Assay: Human HepG2 cell viability assay in 384 well format
Type: toxicity, cell-based
Parameters: dose 125 nL, time 70.5 hour; cytotoxicity at 70.5 h: concentration not given beside the values
Conditions: HepG2 cells, read-out: Inhibition

| SMILES | cytotoxicity at 70.5 h [%] |
| --- | --- |
| CCOc1nn(CC)cc1-c1nnc(SCc2cccnc2)n1CC | -7.15 |
| Cc1cc(CN2CCC(CNS(=O)(=O)c3c(C)noc3C)CC2)c(C)o1 | 2.34 |
| Cc1cc(CN2CCC(CNS(=O)(=O)c3ccc(Br)s3)CC2)c(C)o1 | -7.28 |
| CCOc1ccc(S(=O)(=O)NCCc2ccc(N(C)C)cc2)cc1F | -1.54 |
| O=C(CCc1ccccc1)NCC1CCN(Cc2cccs2)CC1 | -8.06 |
| COCC(=O)NCC1CCN(Cc2ccsc2)CC1 | 33.7 |
| O=C(COc1ccccc1)NCC1CCN(Cc2ccsc2)CC1 | -4.27 |
| O=C(CCSc1ccccc1)NCC1CCN(Cc2ccsc2)CC1 | 4.4 |
| CCCc1nnsc1C(=O)NCC1CCN(c2ncccn2)CC1 | -13.9 |
| O=C(NCCS(=O)(=O)N1CCN(c2ncccn2)CC1)C1CCCC1 | -5.6 |
| O=C(NCCS(=O)(=O)N1CCN(c2ncccn2)CC1)c1ccccc1 | -7.9 |
| CCCS(=O)(=O)N1CCN(c2ccc3nnc(CC)n3n2)CC1 | -12.7 |
| COc1ccc(C(=O)NCC(c2cccn2C)N2CCCC2)cc1OC (configuration not stated) | -4.98 |
| COc1ccccc1C(=O)NCC(c1cccn1C)N1CCOCC1 (configuration not stated) | -6.22 |
| Cc1ccc(C)c(C(=O)NCC(c2cccn2C)N2CCCCCC2)c1 (configuration not stated) | -1.53 |
| CC(=O)Nc1cc(C2CC2)nn1-c1nc(C)c(C)c(=O)[nH]1 | 38.4 |
| CCc1c(C)nc(-n2nc(C3CC3)cc2NC(C)=O)[nH]c1=O | 1.53 |
| Cn1nc2c(c1NC(=O)c1ccc(Cl)s1)CCC2 | -8.38 |
| Cc1cc(=O)[nH]c(-n2nc(C)c(CCC(=O)NCc3ccco3)c2C)n1 | 31.1 |
| Cc1cc(=O)[nH]c(-n2nc(C)c(CCC(=O)Nc3nc(C)cs3)c2C)n1 | -3.34 |
| Cc1cc(=O)[nH]c(-n2nc(C)c(CCC(=O)NCC(C)C)c2C)n1 | -4.48 |
| Cc1nnc(NC(=O)c2c3c(nn2C2CCS(=O)(=O)C2)CCC3)s1 (configuration not stated) | -4.4 |
| CCc1nnc(NC(=O)c2c3c(nn2C2CCS(=O)(=O)C2)CCC3)s1 (configuration not stated) | -6.09 |
| O=S(=O)(NCC1(c2cccs2)CCOCC1)c1ccc2c(c1)OCCO2 | 12 |

| SMILES | cytotoxicity at 70.5 h [%] |
| --- | --- |
| COc1cccc(NC(=O)Nc2ccc3c(c2)CC(=O)N3)c1 | -16.9 |
| O=S(=O)(c1cccnc1)N1CCN(Cc2nc(-c3cccs3)cs2)CC1 | -14.7 |
| CN(C)S(=O)(=O)NCCn1nc(-c2ccccc2)n(C)c1=O | -4.25 |
| COCCc1nnc(NC(=O)CCCc2ccccc2)o1 | -6.03 |
| Cc1noc(C)c1CCC(=O)NCCc1cccs1 | -7.09 |
| Cc1nccn1CC1CCN(C(=O)c2cccs2)CC1 | -17.8 |
| CN(C)S(=O)(=O)N1CCC(Cn2cccn2)CC1 | -7.21 |
| CCOc1ccc(S(=O)(=O)N(CCOC)Cc2ccncc2)cc1F | 35.3 |
| O=C(NCC(O)(c1ccco1)C1CC1)c1c(F)cccc1Cl (configuration not stated) | -0.808 |
| Cn1cccc1C(O)CNC(=O)c1ccc(F)c(F)c1 (configuration not stated) | -13.5 |
| Cn1cccc1C(O)CNC(=O)c1ccc(C(F)(F)F)cc1 (configuration not stated) | -20.6 |
| Cn1cccc1C(O)CNS(=O)(=O)Cc1ccccc1 (configuration not stated) | 12.5 |
| Cn1cccc1C(O)CNS(=O)(=O)c1ccccc1F (configuration not stated) | 3.03 |
| Cc1cc(F)ccc1S(=O)(=O)NCC(O)c1cccn1C (configuration not stated) | 0.803 |
| Cn1cccc1C(O)CNS(=O)(=O)c1ccccc1Br (configuration not stated) | -0.453 |
| COc1ccc(CC(=O)NCC(O)c2sccc2C)cc1OC (configuration not stated) | -6.12 |
| Cc1ccsc1C(O)CNS(=O)(=O)Cc1ccc(F)cc1 (configuration not stated) | -10.1 |
| COc1ccc(F)cc1S(=O)(=O)NCC(O)c1sccc1C (configuration not stated) | -2.63 |
| COc1ccc(S(=O)(=O)NCC(O)c2sccc2C)cc1Cl (configuration not stated) | 0.182 |
| O=C(NCc1cccs1)NCC(O)(c1cccs1)C1CC1 (configuration not stated) | -12.2 |
| O=C(NCc1ccc(F)cc1)NCC(O)(c1cccs1)C1CC1 (configuration not stated) | -8.72 |
| COc1ccc(CNC(=O)NCC(O)(c2cccs2)C2CC2)cc1 (configuration not stated) | -6.74 |
| CC(O)(CCc1ccccc1)CNC(=O)c1ccsc1 (configuration not stated) | -2.72 |
| CC(O)(CCc1ccccc1)CNC(=O)c1ccc(F)cc1 (configuration not stated) | 14.3 |

| SMILES | cytotoxicity at 70.5 h [%] |
| --- | --- |
| O=C(NCC1(O)CCCC1)c1ccc2nsnc2c1 | -20.9 |
| O=C(NCC(O)c1cccs1)c1ccco1 (configuration not stated) | -10.6 |
| CN(C)c1cccc(C(=O)NCC(O)c2cccs2)c1 (configuration not stated) | 20.3 |
| CC(=O)c1cccc(S(=O)(=O)NCC(C)(O)c2cccs2)c1 (configuration not stated) | -7.85 |
| COc1ccc(S(=O)(=O)NCC(C)(O)c2cccs2)cc1Cl (configuration not stated) | -10.5 |
| Cc1nc(C)c(CC(=O)NCc2ccccc2F)s1 | -11.1 |
| COC1CCN(C(=O)Cn2ccc3ccccc32)CC1 | -3.16 |
| O=C(Cn1cccn1)Nc1ccc(N2CCOCC2)cc1 | 0.51 |
| O=C(CNC(=O)c1c[nH]c2ccccc12)NCCCn1ccnc1 | -5.85 |
| Cc1cc(NC(=O)Cn2cnc(-c3cccs3)cc2=O)no1 | -2.01 |
| O=C(NCC1(CO)CC1)c1ccccc1F | -8.21 |
| Cc1ccc(N2CCCN(C(=O)CC3C=CCC3)CC2)nn1 (configuration not stated) | -4.92 |
| Cc1nc(N2CCN(C(=O)c3ccccc3)CC2)c2cnn(C)c2n1 | -0.834 |
| CC(C)C(C(=O)N1CCCN(c2cccnn2)CC1)n1cncn1 (configuration not stated) | 4.13 |
| Cc1noc(CN(C)Cc2ccc3c(c2)OCO3)n1 | 12.4 |
| CCNC(=O)NC(=O)CNC(C)(C)c1ccc2c(c1)OCCO2 | -5.69 |
| CC(C)(NCC(=O)NCC1CC1)c1ccc2c(c1)OCCO2 | 15.5 |
| Cc1noc(C)c1CN1CCC(N(C)Cc2nnc(C3CC3)n2C)C1 (configuration not stated) | -2.84 |
| Cc1nnc(C(C)N2CCCN(Cc3ccc(C#N)cc3)CC2)o1 (configuration not stated) | -2.73 |
| Cc1cnn(CC2CCCN2Cc2nnc(C)o2)c1 (configuration not stated) | -2.26 |
| COc1ccccc1N1CCC(CNS(=O)(=O)c2cccc(C#N)c2)C1 (configuration not stated) | 22.7 |
| Cc1nnc(C(C)N2CCN(Cc3ccc(C(F)(F)F)cc3)CC2)o1 (configuration not stated) | -1.82 |
| c1ccc(Cc2nnc(CN3CCCCC3Cn3cncn3)o2)cc1 (configuration not stated) | 0.659 |
| CCc1noc(CN(Cc2ccc3c(c2)OCO3)C2CCCC2)n1 | -10.9 |

| SMILES | cytotoxicity at 70.5 h [%] |
| --- | --- |
| Cc1cccc(-c2noc(CN3CCOCC3C)n2)c1 (configuration not stated) | -5.27 |
| CC(C)c1nnc(CN2CCCC(c3cc(C(N)=O)[nH]n3)C2)o1 (configuration not stated) | 26.9 |
| CC(C(=O)Nc1ccc(N2CCOCC2)nc1)n1cncn1 (configuration not stated) | 23.7 |
| Cc1nc(C)n(CC2CCCN(Cc3ccc(F)cc3C#N)C2)n1 (configuration not stated) | -1.49 |
| Cc1cc(C)n(C2CCCN(C(=O)CCc3nccs3)C2)n1 (configuration not stated) | 28.2 |
| CC1COCCN1Cc1nc(-c2ccc(Br)s2)no1 (configuration not stated) | 1.52 |
| Cc1nn(C)c(Cl)c1C1CCCN1C(=O)c1cc(C2CC2)on1 (configuration not stated) | 3.63 |
| COc1ccc(CCNC(C)c2ccc3[nH]c(=O)[nH]c3c2)cc1OC (configuration not stated) | 3.32 |
| Cc1ncc(CN2CCCC(c3cc(C(N)=O)[nH]n3)C2)s1 (configuration not stated) | 57.9 |
| c1cnnc(N2CCCC(NCc3nc(-c4ccco4)no3)C2)c1 (configuration not stated) | 46.2 |
| CSc1ccc(C(=O)N2CCOCC2c2c(C)n[nH]c2C)o1 (configuration not stated) | 18.3 |
| Cc1n[nH]c(C)c1C1COCCN1C(=O)c1n[nH]c2ccccc12 (configuration not stated) | 12.3 |
| Cc1ccoc1-c1nnc(CNC2CCCN(c3cccnn3)C2)o1 (configuration not stated) | 12.6 |
| CC(C)c1nnc2n1CCN(Cc1nc(-c3ccoc3)no1)C2 | 16.7 |
| Cc1ncsc1C(=O)N(C)Cc1cccnc1 | -9.5 |
| Cc1ccccc1C1(C(=O)NCCN2CCOCC2)CCOCC1 | -9.98 |
| Cc1cc(CNc2cccc(Cl)c2C)no1 | -17.1 |
| CCOc1ncccc1CNC(=O)c1cccc(C)n1 | -17.3 |
| Cc1n[nH]c(C)c1C1COCCN1C(=O)c1cc(F)ccc1F (configuration not stated) | -8.76 |
| Cc1n[nH]c(C)c1C1COCCN1C(=O)c1cccc(F)c1F (configuration not stated) | -15.7 |
| CN(C)c1cc(CNC(=O)Nc2ccc(C#N)cc2)ccn1 | -11.3 |
| NC(=O)C1CCN(C(=O)NCCOc2ccc3c(c2)CCC3)CC1 | -6.38 |
| CC(=O)NCC1CCN(C(=O)NCCOc2ccc3c(c2)CCC3)CC1 | -11.5 |
| COc1ccc(Cl)cc1NCc1cc(C)on1 | -3.4 |

| SMILES | cytotoxicity at 70.5 h [%] |
| --- | --- |
| COc1ccc(OCCNC(=O)N2CCS(=O)(=O)CC2)cc1 | -7.97 |
| c1ccc(-n2cc(CNC3CCc4ncnn4C3)nn2)cc1 (configuration not stated) | -7.65 |
| O=C(O)c1cc(S(=O)(=O)N2CCOc3ccccc32)ccc1Br | -2.35 |
| Cc1ccc(NC(=O)C2CSCN2C(=O)c2cnccn2)cc1C (configuration not stated) | -9.37 |
| CSCCc1ccc(NC(=O)NCc2ccnc(N(C)C)c2)cc1 | 16.5 |
| Cc1oc(-c2ccco2)nc1CNC1CCCN(c2cccnn2)C1 (configuration not stated) | -9.89 |
| CC(=O)N1CCCN(C(=O)NCCOc2ccc3c(c2)CCC3)CC1 | -4.61 |
| Cc1noc(C)c1S(=O)(=O)NC(=O)COc1ccc2c(c1)CCC2 | -13.5 |
| CN(C)c1cc(CNc2ccc(S(=O)(=O)C(C)(C)C)nc2)ccn1 | 8.83 |
| Cc1cccc(C)c1OCC(=O)NS(=O)(=O)c1c(C)noc1C | -14.4 |
| Cc1n[nH]c(C)c1C1COCCN1C(=O)c1ccc2c(c1)CCO2 (configuration not stated) | -8 |
| Cc1nn(C)c(N(C)C)c1CNCCCNS(C)(=O)=O | 4.14 |
| COCc1nc(C(=O)NS(=O)(=O)c2cc(Br)ccc2C)cs1 | 1.93 |
| O=C(c1cccc(N2CCCC2=O)c1)N1CCCC(n2cccn2)C1 (configuration not stated) | -6.59 |
| O=C(c1cccc(Cn2ccnc2)c1)N1CCCC(n2cccn2)C1 (configuration not stated) | 5.77 |
| CCOc1ccc(C(=O)N2CCN(c3nccn3C)CC2)cc1 | -0.809 |
| Cn1ccnc1N1CCN(C(=O)Cc2ccccc2)CC1 | -8.11 |
| COc1ccc(CC(=O)N2CCN(c3nccn3C)CC2)cc1 | -1.27 |
| Cc1cccc(CC(=O)N2CCN(c3nccn3C)CC2)c1 | -1.55 |
| CCOc1ccc(CC(=O)N2CCN(c3nccn3CC)CC2)cc1 | -1.22 |
| COc1c(CNCc2cccc(Cn3ccnc3C)c2)c(C)nn1C | 13.2 |
